Converted amounts (≈) assume the structure as drawn. The source made the active and inactive calls. No cut-off for these calls is given here.

Data set [1] concerns Lactuca sativa. The experiment in a line: Phytotoxicity in naked Lactuca sativa (lettuce) assessed as change in visual quality after compound application through two-tier reduced pressure fumigation at 30 mmHg for 0.5 hr and then 760 mmHg for 1.5 hr at 23 +/- 1 degC after 2 hr. The following applies: in vivo. The data set is classed as organism-based.
Data set [2] relates to Myzus persicae. Briefly: Insecticidal activity against Myzus persicae (green peach aphid) placed under third leaf of naked Iceburg lettuce heads and after compound application for 2 hr through two-tier reduced pressure fumigation at 30 mmHg for 0.5 hr and then 760 mmHg for 1.5 hr at 23 +/- 1 degC measured after 24 hr. The following applies: for LC50: Myzus persicae, read-out: LD50 (the source's name). It is filed as functional.

For a further data set, the system named is Tetranychus urticae. The experiment in a line: Insecticidal activity against Tetranychus urticae (two-spotted spider mite). The data set is classed as functional, organism-based.
A further data set relates to Brevicoryne brassicae. The experiment in a line: Insecticidal activity against Brevicoryne brassicae (cabbage aphids). The data set is classed as functional, organism-based.
Data set [3] has as its system Frankliniella occidentalis. The experiment in a line: Insecticidal activity against Frankliniella occidentalis (western flower thrips). It is filed as functional, organism-based.
For the next data set, the system named is Bemisia. The experiment in a line: Insecticidal activity against Bemisia sp. It is filed as functional, organism-based.
A further data set has as its system Pseudococcus affinis. Briefly: Insecticidal activity against Pseudococcus affinis. It is filed as functional, organism-based.
A further data set deals with Pseudococcus viburni. The experiment in a line: Insecticidal activity against Pseudococcus viburni. It is filed as functional, organism-based.
The subject of data set [4] is Lactuca sativa. The experiment in a line: Phytotoxicity in naked Lactuca sativa (lettuce) assessed as residual aldehyde odor after compound application through two-tier reduced pressure fumigation at 30 mmHg for 0.5 hr and then 760 mmHg for 1.5 hr at 23 +/- 1 degC after 2 hr. The data set is classed as organism-based. The settings on record: in vivo.
Data set [5] has as its system Myzus persicae. The experiment in a line: Insecticidal activity against Myzus persicae (green peach aphid) applied through two-tier reduced pressure fumigation at 30 mmHg for 0.5 hr and then 760 mmHg for 1.5 hr at 23 +/- 1 degC. The data set is classed as functional.
Another data set deals with Persea americana. Briefly: Phytotoxicity in Persea americana (avocado) assessed as induction of visual damage after compound application for 1 hr through two-tier reduced pressure fumigation at 30 mmHg for 0.5 hr and then 760 mmHg for 1.5 hr at 23 +/- 1 degC. It is filed as organism-based. The settings on record: in vivo.
In a further data set the test system is Citrus x paradisi. Briefly: Phytotoxicity in Citrus x paradisi (grape fruit) assessed as induction of visual damage after compound application for 1 hr through two-tier reduced pressure fumigation at 30 mmHg for 0.5 hr and then 760 mmHg for 1.5 hr at 23 +/- 1 degC. The following applies: in vivo. It is filed as organism-based.
Data set [6] relates to Brassica oleracea var. capitata. The experiment in a line: Phytotoxicity in Brassica oleracea var. capitata (cabbage) assessed as induction of visual damage after compound application for 1 hr through two-tier reduced pressure fumigation at 30 mmHg for 0.5 hr and then 760 mmHg for 1.5 hr at 23 +/- 1 degC. It is filed as organism-based. The settings on record: in vivo.
Data set [7] deals with Lactuca sativa. The experiment in a line: Phytotoxicity in wrapped Lactuca sativa (lettuce) assessed as induction of visual damage after compound application for 1 hr through two-tier reduced pressure fumigation at 30 mmHg for 0.5 hr and then 760 mmHg for 1.5 hr at 23 +/- 1 degC. The data set is classed as organism-based. The settings on record: in vivo.
Data set [8] has as its system Brassica oleracea var. italica. Briefly: Phytotoxicity in Brassica oleracea var. italica assessed as induction of visual damage after compound application for 1 hr through two-tier reduced pressure fumigation at 30 mmHg for 0.5 hr and then 760 mmHg for 1.5 hr at 23 +/- 1 degC. The data set is classed as organism-based. The following applies: in vivo.
Data set [9] concerns Vitis vinifera. Briefly: (§1) Phytotoxicity in Vitis vinifera assessed as induction of olfactory damage after compound application for 1 hr through two-tier reduced pressure fumigation at 30 mmHg for 0.5 hr and then 760 mmHg for 1.5 hr at 23 +/- 1 degC. It is filed as organism-based. The settings on record: in vivo.
Data set [10] deals with Vitis vinifera. The data set is described as §1. The data set is classed as organism-based. The following applies: in vivo. The source holds these as a separate data set.
The next data set has as its system Malus domestica. Briefly: Phytotoxicity in Malus x domestica (apple) assessed as induction of olfactory damage after compound application for 1 hr through two-tier reduced pressure fumigation at 30 mmHg for 0.5 hr and then 760 mmHg for 1.5 hr at 23 +/- 1 degC. It is filed as organism-based. The following applies: in vivo.
The subject of the next data set is Phaseolus vulgaris. The experiment in a line: PhytoToxicity in Phaseolus vulgaris (beans) assessed as induction of visual damage after compound application for 1 hr through two-tier reduced pressure fumigation at 30 mmHg for 0.5 hr and then 760 mmHg for 1.5 hr at 23 +/- 1 degC. It is filed as organism-based. The settings on record: in vivo, other.
For data set [11], the system named is Lactuca sativa. Briefly: Phytotoxicity in naked Lactuca sativa (lettuce) assessed as induction of olfactory damage after compound application for 1 hr through two-tier reduced pressure fumigation at 30 mmHg for 0.5 hr and then 760 mmHg for 1.5 hr at 23 +/- 1 degC. The data set is classed as organism-based. The settings on record: in vivo.
The test system of another data set is Oryza sativa. Briefly: Phytotoxicity in Oryza sativa (rice) assessed as induction of visual damage after compound application for 1 hr through two-tier reduced pressure fumigation at 30 mmHg for 0.5 hr and then 760 mmHg for 1.5 hr at 23 +/- 1 degC. The following applies: in vivo. The data set is classed as organism-based.
A further data set relates to Citrus limon. Briefly: Phytotoxicity in Citrus limon (lemon) assessed as induction of olfactory damage after compound application for 1 hr through two-tier reduced pressure fumigation at 30 mmHg for 0.5 hr and then 760 mmHg for 1.5 hr at 23 +/- 1 degC. The data set is classed as organism-based. The settings on record: citrus x limon, in vivo.
In a further data set the test system is Citrus sinensis. Briefly: Phytotoxicity in Citrus sinensis (orange) assessed as induction of olfactory damage after compound application for 1 hr through two-tier reduced pressure fumigation at 30 mmHg for 0.5 hr and then 760 mmHg for 1.5 hr at 23 +/- 1 degC. It is filed as organism-based. The following applies: in vivo.
Data set [12] concerns Brassica oleracea var. capitata. Briefly: Phytotoxicity in Brassica oleracea var. capitata (cabbage) after compound application for 1 hr through two-tier reduced pressure fumigation at 30 mmHg for 0.5 hr and then 760 mmHg for 1.5 hr at 23 +/- 1 degC. It is filed as organism-based. The settings on record: in vivo.
In data set [13] the test system is Brassica oleracea var. italica. Briefly: Phytotoxicity in Brassica oleracea var. italica after compound application for 1 hr through two-tier reduced pressure fumigation at 30 mmHg for 0.5 hr and then 760 mmHg for 1.5 hr at 23 +/- 1 degC. The data set is classed as organism-based. The settings on record: in vivo.
Data set [14] has as its system Lactuca sativa. Briefly: Phytotoxicity in naked Lactuca sativa (lettuce) after compound application for 1 hr through two-tier reduced pressure fumigation at 30 mmHg for 0.5 hr and then 760 mmHg for 1.5 hr at 23 +/- 1 degC. The data set is classed as organism-based. The settings on record: in vivo.
Data set [15] has as its system Myzus persicae. Briefly: Insecticidal activity against Myzus persicae (green peach aphid) infested wrapped lettuce applied for 1 hr through two-tier reduced pressure fumigation at 30 mmHg for 0.5 hr and then 760 mmHg for 1.5 hr at 23 +/- 1 degC measured 24 hr. The data set is classed as functional, organism-based.
The subject of data set [16] is Myzus persicae. The experiment in a line: Insecticidal activity against Myzus persicae (green peach aphid) infested naked lettuce applied for 1 hr through two-tier reduced pressure fumigation at 30 mmHg for 0.5 hr and then 760 mmHg for 1.5 hr at 23 +/- 1 degC measured 24 hr. The data set is classed as functional, organism-based.

Regarding `CCC(C)C=O` (centres undefined) [2-METHYLBUTANAL], the Activity entry with Lactuca sativa [1] and in the data set on Lactuca sativa [4] was “Toxic” throughout. The same compound had an LD90 in the data set on Myzus persicae [2] of 184.4 mg/L. Also, in the data set on Myzus persicae [2], the LC50 was found to be 138 µg/mL (≈ 1610 µM). In addition, the result in the data set with Tetranychus urticae and in the data set with Brevicoryne brassicae was inactive. For the same compound, the outcome (in data set [3]; in the data set with Bemisia; with Pseudococcus affinis; in the data set on Pseudococcus viburni) was Active.
For the compound `CCC/C=C/C=O`, the Activity entry in the data set on Lactuca sativa [1] and with Lactuca sativa [4] was “Toxic” throughout. The compound further showed an LD90 in the data set on Myzus persicae [2] of 54.4 mg/L. The LC50 with Myzus persicae [2] came out at 24.3 µg/mL (≈ 248 µM). For the same compound, the result in the data set on Tetranychus urticae and in the data set with Brevicoryne brassicae was inactive. Moreover, the outcome (in [3]; with Bemisia; with Pseudococcus affinis; with Pseudococcus viburni) was Active.
As for `CC(C)C=O` [ISOBUTYRALDEHYDE], the CTP with Myzus persicae [5] is 9.2 mg/L.hr. Also, the Activity entry in the data set on Lactuca sativa [1] and in the data set on Lactuca sativa [4] was “Toxic” throughout. This compound yielded an LD90 in the data set with Myzus persicae [2] of 224.1 mg/L. The result in the data set on Tetranychus urticae and with Brevicoryne brassicae was inactive. For the same compound, the outcome (in [3]; in the data set with Bemisia; in the data set with Pseudococcus affinis; in the data set on Pseudococcus viburni) was Active.
Take `CC/C=C(\C)C=O` [2-methyl-(E)-2-pentenal]: the Activity entry in the data set on Lactuca sativa [1] and in the data set on Lactuca sativa [4] was “Toxic” each time. In the data set on Myzus persicae [2], this compound displayed an LD90 of 85.8 mg/L. In addition, the LC50 in the data set on Myzus persicae [2] amounted to 33.5 µg/mL (≈ 341 µM). The outcome with Tetranychus urticae and in the data set with Brevicoryne brassicae was inactive. For the same compound, the result (in data set [3]; in the data set with Bemisia; in the data set on Pseudococcus affinis; with Pseudococcus viburni) was Active.
For the compound `CCCC(C)C=O` (centres undefined) [2-METHYLPENTANAL], the Activity entry in the data set on Lactuca sativa [1] and in the data set with Lactuca sativa [4] was “Toxic” throughout. Further, in the data set with Myzus persicae [2], the LD90 is 54.2 mg/L. The LC50 in the data set on Myzus persicae [2] worked out at 39.9 µg/mL (≈ 398 µM). Besides, the result with Tetranychus urticae and in the data set on Brevicoryne brassicae was inactive. Besides, the result (in data set [3]; with Bemisia; in the data set on Pseudococcus affinis; with Pseudococcus viburni) was Active.
Regarding `CC/C=C/C=O` [PENTENAL], the Activity entry (in the data set on Lactuca sativa [1]; in the data set with Persea americana; with Citrus x paradisi; in data set [6]; in the data set on Lactuca sativa [7]; in data set [8]) was “Toxic” in each case. The Activity entry was “Non-toxic” with Vitis vinifera [9]; “Non-toxic” with Vitis vinifera [10]; “Non-toxic” in the data set with Malus domestica; “Toxic” in the data set on Phaseolus vulgaris; “Toxic” with Lactuca sativa [11]; “Toxic” in the data set with Oryza sativa. The Activity entry in the data set on Lactuca sativa [4] is listed as “Toxic”; in the data set on Citrus limon it was “Non-toxic”; in the data set with Citrus sinensis, “Non-toxic”; in [12] it was “Toxic”; in data set [13] it was “Toxic”; in the data set on Lactuca sativa [14], “Toxic”. The compound also displayed a CTP in the data set with Myzus persicae [2] of 106 mg/L.hr. The same compound displayed an LD90 in the data set on Myzus persicae [2] of 25.8 mg/L. Also, the LC50 in the data set with Myzus persicae [2] is 13.1 µg/mL (≈ 156 µM). For the same compound, the outcome in the data set with Tetranychus urticae and in the data set with Brevicoryne brassicae was inactive. Besides, the result (in [3]; in the data set with Bemisia; in the data set with Pseudococcus affinis; in the data set on Pseudococcus viburni; in the data set on Myzus persicae [15]; in the data set on Myzus persicae [16]) was Active.
Take `CC(C)=CC=O` [3-METHYL-(E)-2-BUTENAL]: the Activity entry in the data set on Lactuca sativa [1] and with Lactuca sativa [4] was “Toxic” in each case. The compound further displayed an LD90 with Myzus persicae [2] of 139.1 mg/L. For the same compound, the LC50 in the data set with Myzus persicae [2] is 73.9 µg/mL (≈ 879 µM). Further, the result in the data set with Tetranychus urticae and in the data set with Brevicoryne brassicae was inactive. Also, the result (in data set [3]; in the data set on Bemisia; with Pseudococcus affinis; in the data set on Pseudococcus viburni) was Active.
On to `CCCCC=O` [PENTANAL], for which the Activity result in the data set with Lactuca sativa [1] and in the data set with Lactuca sativa [4] was “Toxic” in each case. Besides, the LD90 in the data set on Myzus persicae [2] was found to be 115.7 mg/L. Besides, the LC50 in the data set on Myzus persicae [2] was 71.4 µg/mL (≈ 829 µM). Also, the outcome in the data set on Tetranychus urticae and in the data set on Brevicoryne brassicae was inactive. Moreover, the result (in data set [3]; with Bemisia; in the data set on Pseudococcus affinis; in the data set on Pseudococcus viburni) was Active.

These data come from ChEMBL document CHEMBL3046689, “Volatile aldehydes are promising broad-spectrum postharvest insecticides” (J Agric Food Chem, 2000).
